# According to article PMC8872768, “Discovery of ultrafast myosin, its amino acid sequence, and structural features” (Proceedings of the National Academy of Sciences of the …, 2022):
# Tests used:
# CbXI-3 MD = target: T1, CbXI-3 MD (Chara braunii, UniProt A0A388L5N7); assay: actin-activated Mg2+-ATPase, phosphate release; assay type: biochemical; conditions: 2 mM ATP, F-actin 0.125-4 mg/mL, 25 mM KCl, 4 mM MgCl2, pH 7.4, 25 C
# T1 construct: gene CBR_g24025; motor domain only, no IQ motifs; baculovirus / insect cells
# T1 sequence (A0A388L5N7 1-740 limits assumed): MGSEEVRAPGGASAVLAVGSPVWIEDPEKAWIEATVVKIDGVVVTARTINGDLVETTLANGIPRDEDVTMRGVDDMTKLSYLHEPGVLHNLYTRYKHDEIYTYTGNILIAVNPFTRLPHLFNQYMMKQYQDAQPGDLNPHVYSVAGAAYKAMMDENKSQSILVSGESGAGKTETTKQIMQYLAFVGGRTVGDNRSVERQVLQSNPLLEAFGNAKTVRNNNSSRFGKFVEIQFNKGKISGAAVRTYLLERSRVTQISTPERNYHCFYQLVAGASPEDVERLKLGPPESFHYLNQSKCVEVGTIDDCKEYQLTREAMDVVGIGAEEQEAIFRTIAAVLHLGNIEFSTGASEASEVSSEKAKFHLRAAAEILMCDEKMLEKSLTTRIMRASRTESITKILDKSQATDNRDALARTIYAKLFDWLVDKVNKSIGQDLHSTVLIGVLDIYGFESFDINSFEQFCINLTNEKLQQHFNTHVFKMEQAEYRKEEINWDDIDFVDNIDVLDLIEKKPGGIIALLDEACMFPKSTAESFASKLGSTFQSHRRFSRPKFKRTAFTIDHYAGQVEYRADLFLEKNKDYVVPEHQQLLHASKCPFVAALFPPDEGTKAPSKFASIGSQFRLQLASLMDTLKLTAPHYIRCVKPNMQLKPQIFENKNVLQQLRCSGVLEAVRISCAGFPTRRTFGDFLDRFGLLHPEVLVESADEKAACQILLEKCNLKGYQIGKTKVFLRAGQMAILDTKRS
# CbXI-2 MD = target: T2, CbXI-2 MD (Chara braunii, UniProt A0A388M2Q8); assay: actin-activated Mg2+-ATPase, phosphate release; assay type: biochemical; conditions: 2 mM ATP, F-actin 0.125-4 mg/mL, 25 mM KCl, 4 mM MgCl2, pH 7.4, 25 C
# T2 construct: gene CBR_g48390; motor domain only, no IQ motifs; baculovirus / insect cells
# T2 sequence (A0A388M2Q8 1-744 limits assumed): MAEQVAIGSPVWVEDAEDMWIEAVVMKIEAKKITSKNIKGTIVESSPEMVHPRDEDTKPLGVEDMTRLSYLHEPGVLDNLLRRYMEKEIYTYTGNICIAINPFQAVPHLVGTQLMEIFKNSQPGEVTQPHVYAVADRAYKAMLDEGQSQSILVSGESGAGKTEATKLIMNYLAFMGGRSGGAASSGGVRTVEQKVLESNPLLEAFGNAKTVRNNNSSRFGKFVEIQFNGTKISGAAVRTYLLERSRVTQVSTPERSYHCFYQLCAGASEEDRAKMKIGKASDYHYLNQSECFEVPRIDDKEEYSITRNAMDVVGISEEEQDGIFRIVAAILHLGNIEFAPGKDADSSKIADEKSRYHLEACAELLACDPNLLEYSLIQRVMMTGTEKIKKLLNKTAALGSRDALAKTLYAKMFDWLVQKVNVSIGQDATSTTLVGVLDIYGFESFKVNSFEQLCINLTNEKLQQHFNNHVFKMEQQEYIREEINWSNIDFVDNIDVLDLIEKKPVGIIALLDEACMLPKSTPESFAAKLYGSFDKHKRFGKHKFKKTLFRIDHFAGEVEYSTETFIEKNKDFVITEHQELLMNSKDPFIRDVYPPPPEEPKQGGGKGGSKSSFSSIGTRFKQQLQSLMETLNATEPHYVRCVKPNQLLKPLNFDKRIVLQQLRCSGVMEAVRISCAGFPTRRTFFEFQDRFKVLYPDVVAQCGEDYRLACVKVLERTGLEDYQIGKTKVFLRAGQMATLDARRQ
compound,measurement,setting,value
Nc1ncnc2c1ncn2[C@@H]1O[C@H](COP(=O)(O)OP(=O)(O)OP(=O)(O)O)[C@@H](O)[C@H]1O [ATP],"actin-activated Mg2+-ATPase, phosphate release",CbXI-3 MD,"The ATPase activities of CbXI-1, CbXI-2, CbXI-3, and CbXI-4 MDs were plotted"
same,"actin-activated Mg2+-ATPase, phosphate release",CbXI-2 MD,"The ATPase activities of CbXI-1, CbXI-2, CbXI-3, and CbXI-4 MDs were plotted"
